#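 Each compound was tested at five concentrations against cells in 96-well plates for 48 hours. Abbreviation: GI50, concentration required for 50% inhibition of growth.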 The source made the active and inactive calls. Cut-off read from the data, not from the text of the source: active = GI50 up to about 1.1 µM and inactive = higher.
# How the values were obtained:
# Assay in all cases: NCI-60 cell line screen, 48 h
# EKVX = system: EKVX
# SW-620 = system: SW-620
# UO-31 = system: UO-31
# OVCAR-8 = system: OVCAR-8
# K562 = system: K562
# NCI-H460 = system: NCI-H460
# SF-295 = system: SF-295
# OVCAR-5 = system: OVCAR-5
# KM12 = system: KM12
# SNB-19 = system: SNB-19
# PC-3 = system: PC-3
# MCF7 = system: MCF7
# SF-268 = system: SF-268
# HL-60 = system: HL-60
# HCT-116 = system: HCT-116
# NCI-H226 = system: NCI-H226
# UACC-62 = system: UACC-62
# U-251 = system: U-251
# OVCAR-3 = system: OVCAR-3
# SR = system: SR
# HCT-15 = system: HCT-15
# HOP-62 = system: HOP-62
# IGROV-1 = system: IGROV-1
# SK-MEL-28 = system: SK-MEL-28
# OVCAR-4 = system: OVCAR-4
# 786-0 = system: 786-0
# MDA-MB-231 = system: MDA-MB-231
# SN12C = system: SN12C
# HCC 2998 = system: HCC 2998
# CAKI-1 = system: CAKI-1
# CCRF-CEM = system: CCRF-CEM
# TK-10 = system: TK-10
# A498 = system: A498
# Malme-3M = system: Malme-3M
# UACC-257 = system: UACC-257
# LOX IMVI = system: LOX IMVI
# RPMI-8226 = system: RPMI-8226
# SK-MEL-5 = system: SK-MEL-5
# MDA-MB-435 = system: MDA-MB-435
# NCI/ADR-RES = system: NCI/ADR-RES
# BT-549 = system: BT-549
# MOLT-4 = system: MOLT-4
# SF-539 = system: SF-539
# ACHN = system: ACHN
# Hs-578T = system: Hs-578T
# HT-29 = system: HT-29
# SK-OV-3 = system: SK-OV-3
# M14 = system: M14
# HOP-92 = system: HOP-92
# SK-MEL-2 = system: SK-MEL-2
# SNB-75 = system: SNB-75
# NCI-H522 = system: NCI-H522
# A549 = system: A549
# T47D = system: T47D
# RXF 393 = system: RXF 393
structure (smiles),measurement,setting,value
NNC(=S)N/N=C(\C(=O)Nc1cccc(O)c1)C1C(=O)NC(=S)NC1=O,GI50,EKVX,> 100 µM (inactive)
same,GI50,SW-620,> 100 µM (inactive)
same,GI50,UO-31,> 100 µM (inactive)
same,GI50,OVCAR-8,> 100 µM (inactive)
same,GI50,K562,> 100 µM (inactive)
same,GI50,NCI-H460,> 100 µM (inactive)
same,GI50,SF-295,> 100 µM (inactive)
same,GI50,OVCAR-5,> 100 µM (inactive)
same,GI50,KM12,> 100 µM (inactive)
same,GI50,SNB-19,> 100 µM (inactive)
same,GI50,PC-3,> 100 µM (inactive)
same,GI50,MCF7,> 100 µM (inactive)
same,GI50,SF-268,> 100 µM (inactive)
same,GI50,HL-60,> 100 µM (inactive)
same,GI50,HCT-116,> 100 µM (inactive)
same,GI50,NCI-H226,> 100 µM (inactive)
same,GI50,UACC-62,> 100 µM (inactive)
same,GI50,U-251,> 100 µM (inactive)
same,GI50,OVCAR-3,> 100 µM (inactive)
same,GI50,SR,> 100 µM (inactive)
same,GI50,HCT-15,> 100 µM
same,GI50,HOP-62,> 100 µM (inactive)
same,GI50,IGROV-1,> 100 µM (inactive)
same,GI50,SK-MEL-28,> 100 µM (inactive)
same,GI50,OVCAR-4,36.3 µM (inactive)
same,GI50,786-0,> 100 µM (inactive)
same,GI50,MDA-MB-231,> 100 µM (inactive)
same,GI50,SN12C,> 100 µM (inactive)
same,GI50,HCC 2998,> 100 µM (inactive)
same,GI50,CAKI-1,> 100 µM (inactive)
same,GI50,CCRF-CEM,> 100 µM (inactive)
same,GI50,TK-10,> 100 µM (inactive)
same,GI50,A498,> 100 µM (inactive)
same,GI50,Malme-3M,> 100 µM (inactive)
same,GI50,UACC-257,> 100 µM (inactive)
same,GI50,LOX IMVI,> 100 µM (inactive)
same,GI50,RPMI-8226,> 100 µM (inactive)
same,GI50,SK-MEL-5,> 100 µM (inactive)
same,GI50,MDA-MB-435,> 100 µM (inactive)
same,GI50,NCI/ADR-RES,> 100 µM (inactive)
same,GI50,BT-549,> 100 µM (inactive)
same,GI50,MOLT-4,> 100 µM (inactive)
same,GI50,SF-539,> 100 µM (inactive)
same,GI50,ACHN,> 100 µM (inactive)
same,GI50,Hs-578T,> 100 µM (inactive)
same,GI50,HT-29,> 100 µM (inactive)
same,GI50,SK-OV-3,> 100 µM (inactive)
same,GI50,M14,> 100 µM (inactive)
same,GI50,HOP-92,> 100 µM (inactive)
same,GI50,SK-MEL-2,> 100 µM (inactive)
same,GI50,SNB-75,> 100 µM (inactive)
same,GI50,NCI-H522,> 100 µM (inactive)
same,GI50,A549,> 100 µM (inactive)
same,GI50,T47D,> 100 µM (inactive)
same,GI50,RXF 393,> 100 µM (inactive)
